In publication PMC11936226, “Tris inhibits a GH1 β-glucosidase by a linear mixed inhibition mechanism” (PLOS One, 2025):

Experiments:
[1] = target: T1, Sfβgly (GH1 β-glucosidase) (Spodoptera frugiperda, UniProt O61594); experiment: hydrolysis initial rates by purified enzyme (glucose detection); assay type: biochemical
T1 construct: purified recombinant Sfβgly

[2] = target: T1, Sfβgly (GH1 β-glucosidase); experiment: steady-state inhibition kinetics (Lineweaver-Burk) with NPβglc as substrate; also with cellobiose (Ki […]); assay type: biochemical

T1 sequence (O61594 21-509): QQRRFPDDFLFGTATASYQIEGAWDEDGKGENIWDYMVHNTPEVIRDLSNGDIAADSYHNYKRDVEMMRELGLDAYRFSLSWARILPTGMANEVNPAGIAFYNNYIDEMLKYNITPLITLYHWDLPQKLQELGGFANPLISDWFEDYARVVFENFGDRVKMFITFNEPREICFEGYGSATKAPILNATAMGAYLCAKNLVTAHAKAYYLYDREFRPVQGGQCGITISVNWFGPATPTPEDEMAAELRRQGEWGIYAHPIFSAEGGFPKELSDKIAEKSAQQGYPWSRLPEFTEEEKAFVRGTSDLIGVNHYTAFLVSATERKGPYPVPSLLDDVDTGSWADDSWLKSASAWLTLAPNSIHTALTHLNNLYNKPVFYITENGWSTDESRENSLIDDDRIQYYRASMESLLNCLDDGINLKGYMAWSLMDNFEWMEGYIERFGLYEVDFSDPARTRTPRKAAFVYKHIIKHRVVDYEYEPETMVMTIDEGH

For `OC[C@H]1O[C@@H](O[C@H]2[C@H](O)[C@@H](O)C(O)O[C@@H]2CO)[C@H](O)[C@@H](O)[C@@H]1O` (some centres unmarked) [C2, cellobiose], the “hydrolysis initial rates by purified enzyme (glucose detection)” value [1] was “The same experiment was repeated using C2, a natural substrate of Sfβgly, and two independent enzyme samples”.
In the case of `NC(CO)(CO)CO` [Tris, 2-amino-2-(hydroxymethyl)-1,3-propanediol], the Ki [2] is reported as 12 ± 2 mM.
